Reference: US20100015141A1, “4-PHENOXY-6-ARYL-1H-PYRAZOLO[3,4-D]PYRIMIDINE AND N-ARYL-6-ARYL-1H-PYRAZOLO[3,4-D]PYRIMIDIN-4-AMINE COMPOUNDS, THEIR USE AS MTOR KINASE AND PI3 KINASE INHIBITORS, AND THEIR SYNTHESES” (Wyeth, priority 2008, published 2010)
Read-outs that look alike come from different tables or passages of the source.

Columns and labels:
mTOR [1] = target: T1, mTOR (Homo sapiens, UniProt P42345); conditions: read-out: mTOR IC50; mTOR complexes (PI103) / mTOR enzymes (ZSTK474); cited from earlier work
human tumor xenografts = conditions: cited from earlier work
[2] = test system: acute lymphoblastic leukemia; conditions: in vivo; cited from earlier work
PI3K-δ = PI3K-δ (Homo sapiens, UniProt O00329); assay: PI3K fluorescence polarization assay (PI3K-δ); format: biochemical
Description: (§1) The reaction buffer was 20 mM HEPES pH7.5, 2 mM MgCl2, 0.05% CHAPS, and 0.01% βME (added fresh). The substrate solution was 40 μM PIP2 (diC8, Echelon, Salt Lake City Utah cat #P-4508, 1 mM in water) and 50 μM ATP in the reaction buffer. Nunc 384-well black polypropylene fluorescent plates were used for PI3K assays. The assay is run by putting 9.5 μl of freshly diluted enzyme in the reaction buffer per well, adding 0.5 μl of diluted drug or DMSO, and mixing. Then 10 μl of the substrate solution is added to each well to start the reaction. A final concentration of 20 μM PIP2 and 25 μM ATP in the reaction was used. Reactions were allowed to proceed for 30-60 minutes at room temperature. After 30-60 minutes, 20 μl of a solution of 10 nM TAMRA detector (Red detector probe-Echelon) and 2.5 uM of GST-murineGRP (1.5 mg/ml in 17% glycerol) was added per well to stop the reaction. The resulting solution was mixed well and allowed to stand for 90-110 minutes before reading plate. Assay Plates were read on Perkin-Elmer Envision plate readers with appropriate filters for Tamra [BODIPY-TMRI(1,3,4,5)P4]. Data obtained were used to calculate enzymatic activity and enzyme inhibition by inhibitor compounds. It is important to keep Red probe solutions dark. This procedure is adapted from Echelon Biosciences Inc procedure for their PI3-Kinase fluorescence polarization activity Assay kit Product number K-1100.

PI3K-β = PI3K-β (Homo sapiens, UniProt P42338); assay: PI3K fluorescence polarization assay (PI3K-β); format: biochemical
Description: as §1

PI3K-γ = PI3K-γ (Homo sapiens, UniProt P48736); assay: PI3K-gamma fluorescence polarization assay; format: biochemical; conditions: 20 μM PIP2, 25 μM ATP
Method in brief: (§2)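 Buffer: 20 mM HEPES pH7.5, 2 mM MgCl2, 0.05% CHAPS, 0.01% βME. Enzyme with compound was reacted with final 20 μM diC8 PIP2 and 25 μM ATP for 30-60 minutes at room temperature. The stop/detection mix (10 nM TAMRA probe, 2.5 uM GST-murine GRP as added) was read by fluorescence polarization after 90-110 minutes.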

PI3K-α = PI3K-α (Homo sapiens, UniProt P42336); assay: PI3K-alpha fluorescence polarization assay; format: biochemical; conditions: 20 μM PIP2, 25 μM ATP
Method in brief: as §2

mTOR [3] = target: T1, mTOR; assay: mTOR enzyme assay (DELFIA, His6-S6K phosphorylation); format: biochemical; parameters: FLAG; conditions: 100 μM ATP, 1.25 μM His6-S6K

Chain of PI3K-γ (P48736 whole entry, species assumed): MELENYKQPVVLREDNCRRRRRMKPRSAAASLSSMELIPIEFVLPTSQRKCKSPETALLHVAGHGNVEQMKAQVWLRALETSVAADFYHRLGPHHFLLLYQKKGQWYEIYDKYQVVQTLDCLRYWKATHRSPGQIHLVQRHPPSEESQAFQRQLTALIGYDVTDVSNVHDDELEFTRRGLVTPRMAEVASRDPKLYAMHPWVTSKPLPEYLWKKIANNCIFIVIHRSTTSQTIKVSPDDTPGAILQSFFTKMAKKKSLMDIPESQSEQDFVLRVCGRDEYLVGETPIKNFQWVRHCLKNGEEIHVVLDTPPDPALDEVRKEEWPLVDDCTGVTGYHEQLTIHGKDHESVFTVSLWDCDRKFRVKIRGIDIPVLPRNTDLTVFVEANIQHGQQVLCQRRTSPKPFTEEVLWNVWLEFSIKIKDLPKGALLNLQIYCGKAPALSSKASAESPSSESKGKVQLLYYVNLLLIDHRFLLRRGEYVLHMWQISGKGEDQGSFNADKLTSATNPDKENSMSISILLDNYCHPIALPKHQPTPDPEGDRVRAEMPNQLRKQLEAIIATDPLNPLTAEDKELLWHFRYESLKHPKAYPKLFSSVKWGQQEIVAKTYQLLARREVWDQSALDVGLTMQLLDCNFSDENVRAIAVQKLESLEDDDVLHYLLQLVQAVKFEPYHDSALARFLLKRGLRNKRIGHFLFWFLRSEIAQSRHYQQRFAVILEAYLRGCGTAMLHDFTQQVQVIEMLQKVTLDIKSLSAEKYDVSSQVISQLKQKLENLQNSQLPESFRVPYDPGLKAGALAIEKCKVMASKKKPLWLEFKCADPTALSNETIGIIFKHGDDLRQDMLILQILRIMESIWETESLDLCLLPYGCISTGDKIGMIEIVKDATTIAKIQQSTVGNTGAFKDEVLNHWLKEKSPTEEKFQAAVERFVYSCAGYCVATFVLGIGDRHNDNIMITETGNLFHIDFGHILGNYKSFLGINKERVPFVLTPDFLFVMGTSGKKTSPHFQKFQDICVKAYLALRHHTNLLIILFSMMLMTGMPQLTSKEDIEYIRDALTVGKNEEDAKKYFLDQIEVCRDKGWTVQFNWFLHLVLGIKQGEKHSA
Chain of PI3K-α (P42336 whole entry, species assumed): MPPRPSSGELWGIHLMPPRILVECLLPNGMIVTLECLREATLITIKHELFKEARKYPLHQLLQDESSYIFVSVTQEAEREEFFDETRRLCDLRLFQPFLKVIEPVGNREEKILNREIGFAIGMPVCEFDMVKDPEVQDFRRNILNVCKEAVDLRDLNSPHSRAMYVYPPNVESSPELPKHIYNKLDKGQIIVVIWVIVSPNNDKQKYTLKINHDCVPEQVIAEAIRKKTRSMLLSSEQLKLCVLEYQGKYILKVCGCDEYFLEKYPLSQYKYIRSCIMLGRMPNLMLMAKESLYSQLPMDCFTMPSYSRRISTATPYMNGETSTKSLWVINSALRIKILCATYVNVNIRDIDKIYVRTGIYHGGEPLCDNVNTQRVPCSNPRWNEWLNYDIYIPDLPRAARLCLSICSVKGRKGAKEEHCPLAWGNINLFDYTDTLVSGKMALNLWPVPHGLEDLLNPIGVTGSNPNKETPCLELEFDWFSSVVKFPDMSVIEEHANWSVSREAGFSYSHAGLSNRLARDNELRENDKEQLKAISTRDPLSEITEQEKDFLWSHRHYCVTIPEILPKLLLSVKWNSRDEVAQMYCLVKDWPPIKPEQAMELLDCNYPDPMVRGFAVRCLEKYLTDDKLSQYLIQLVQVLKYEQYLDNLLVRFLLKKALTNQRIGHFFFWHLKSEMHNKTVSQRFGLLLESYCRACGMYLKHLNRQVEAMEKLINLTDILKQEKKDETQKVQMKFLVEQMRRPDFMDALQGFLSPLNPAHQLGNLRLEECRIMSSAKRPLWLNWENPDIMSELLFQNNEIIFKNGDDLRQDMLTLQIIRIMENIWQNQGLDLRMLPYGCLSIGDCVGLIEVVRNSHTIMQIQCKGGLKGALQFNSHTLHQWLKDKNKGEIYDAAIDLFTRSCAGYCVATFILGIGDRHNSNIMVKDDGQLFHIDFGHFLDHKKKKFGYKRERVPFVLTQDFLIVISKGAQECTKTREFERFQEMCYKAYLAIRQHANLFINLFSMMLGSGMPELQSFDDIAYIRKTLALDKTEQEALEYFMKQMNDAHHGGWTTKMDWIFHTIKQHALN
Chain of PI3K-α (P27986 whole entry partner, species assumed): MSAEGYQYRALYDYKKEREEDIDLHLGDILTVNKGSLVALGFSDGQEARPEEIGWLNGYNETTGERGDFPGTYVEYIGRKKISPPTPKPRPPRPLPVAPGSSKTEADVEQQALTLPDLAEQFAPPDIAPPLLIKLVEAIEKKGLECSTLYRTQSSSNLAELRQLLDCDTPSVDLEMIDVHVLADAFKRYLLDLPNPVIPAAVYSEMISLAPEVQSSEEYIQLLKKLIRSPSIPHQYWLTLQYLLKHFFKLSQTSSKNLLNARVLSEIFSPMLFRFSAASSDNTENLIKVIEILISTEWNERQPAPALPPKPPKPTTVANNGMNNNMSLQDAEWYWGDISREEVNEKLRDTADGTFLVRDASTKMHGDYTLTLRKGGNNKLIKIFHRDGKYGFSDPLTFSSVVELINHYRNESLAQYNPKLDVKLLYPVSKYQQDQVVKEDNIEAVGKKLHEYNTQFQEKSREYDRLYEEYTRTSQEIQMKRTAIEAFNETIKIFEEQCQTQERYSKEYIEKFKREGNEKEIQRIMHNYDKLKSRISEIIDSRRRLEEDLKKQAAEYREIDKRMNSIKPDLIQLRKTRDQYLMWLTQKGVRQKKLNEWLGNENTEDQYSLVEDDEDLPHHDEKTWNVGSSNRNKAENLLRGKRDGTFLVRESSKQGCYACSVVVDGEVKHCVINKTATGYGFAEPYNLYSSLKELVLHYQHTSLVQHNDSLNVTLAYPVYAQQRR
Chain of PI3K-δ (O00329 whole entry, species assumed): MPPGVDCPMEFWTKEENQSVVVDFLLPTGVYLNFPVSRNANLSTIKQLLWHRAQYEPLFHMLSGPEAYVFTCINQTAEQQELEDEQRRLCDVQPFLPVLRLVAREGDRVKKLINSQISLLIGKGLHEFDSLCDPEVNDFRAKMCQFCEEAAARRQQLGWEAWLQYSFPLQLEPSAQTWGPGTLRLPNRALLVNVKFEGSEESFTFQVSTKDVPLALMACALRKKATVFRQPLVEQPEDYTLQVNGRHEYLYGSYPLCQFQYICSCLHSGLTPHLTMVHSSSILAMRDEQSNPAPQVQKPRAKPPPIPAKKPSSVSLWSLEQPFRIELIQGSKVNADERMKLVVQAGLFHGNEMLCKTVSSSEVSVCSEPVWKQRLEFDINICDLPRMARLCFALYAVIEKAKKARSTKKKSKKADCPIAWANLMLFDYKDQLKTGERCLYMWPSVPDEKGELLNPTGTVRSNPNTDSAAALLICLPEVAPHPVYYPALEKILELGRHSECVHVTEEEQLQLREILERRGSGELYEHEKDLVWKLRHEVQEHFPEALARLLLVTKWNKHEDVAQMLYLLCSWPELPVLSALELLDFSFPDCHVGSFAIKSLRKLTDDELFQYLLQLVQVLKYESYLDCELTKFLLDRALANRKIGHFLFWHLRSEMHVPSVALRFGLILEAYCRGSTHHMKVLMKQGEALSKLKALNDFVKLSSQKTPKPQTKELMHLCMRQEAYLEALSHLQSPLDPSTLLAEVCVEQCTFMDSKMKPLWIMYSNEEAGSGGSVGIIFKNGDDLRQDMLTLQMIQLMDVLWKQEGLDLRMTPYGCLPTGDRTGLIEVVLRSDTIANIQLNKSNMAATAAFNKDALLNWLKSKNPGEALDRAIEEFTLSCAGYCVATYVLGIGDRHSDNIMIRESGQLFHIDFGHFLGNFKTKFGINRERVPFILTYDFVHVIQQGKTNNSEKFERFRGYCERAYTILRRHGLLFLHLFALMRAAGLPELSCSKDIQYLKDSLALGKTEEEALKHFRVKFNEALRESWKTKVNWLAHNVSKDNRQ
Chain of PI3K-δ (P27986 whole entry partner, species assumed): as the sequence (P27986 whole entry partner, species assumed) above
Chain of PI3K-β (P42338 whole entry, species assumed): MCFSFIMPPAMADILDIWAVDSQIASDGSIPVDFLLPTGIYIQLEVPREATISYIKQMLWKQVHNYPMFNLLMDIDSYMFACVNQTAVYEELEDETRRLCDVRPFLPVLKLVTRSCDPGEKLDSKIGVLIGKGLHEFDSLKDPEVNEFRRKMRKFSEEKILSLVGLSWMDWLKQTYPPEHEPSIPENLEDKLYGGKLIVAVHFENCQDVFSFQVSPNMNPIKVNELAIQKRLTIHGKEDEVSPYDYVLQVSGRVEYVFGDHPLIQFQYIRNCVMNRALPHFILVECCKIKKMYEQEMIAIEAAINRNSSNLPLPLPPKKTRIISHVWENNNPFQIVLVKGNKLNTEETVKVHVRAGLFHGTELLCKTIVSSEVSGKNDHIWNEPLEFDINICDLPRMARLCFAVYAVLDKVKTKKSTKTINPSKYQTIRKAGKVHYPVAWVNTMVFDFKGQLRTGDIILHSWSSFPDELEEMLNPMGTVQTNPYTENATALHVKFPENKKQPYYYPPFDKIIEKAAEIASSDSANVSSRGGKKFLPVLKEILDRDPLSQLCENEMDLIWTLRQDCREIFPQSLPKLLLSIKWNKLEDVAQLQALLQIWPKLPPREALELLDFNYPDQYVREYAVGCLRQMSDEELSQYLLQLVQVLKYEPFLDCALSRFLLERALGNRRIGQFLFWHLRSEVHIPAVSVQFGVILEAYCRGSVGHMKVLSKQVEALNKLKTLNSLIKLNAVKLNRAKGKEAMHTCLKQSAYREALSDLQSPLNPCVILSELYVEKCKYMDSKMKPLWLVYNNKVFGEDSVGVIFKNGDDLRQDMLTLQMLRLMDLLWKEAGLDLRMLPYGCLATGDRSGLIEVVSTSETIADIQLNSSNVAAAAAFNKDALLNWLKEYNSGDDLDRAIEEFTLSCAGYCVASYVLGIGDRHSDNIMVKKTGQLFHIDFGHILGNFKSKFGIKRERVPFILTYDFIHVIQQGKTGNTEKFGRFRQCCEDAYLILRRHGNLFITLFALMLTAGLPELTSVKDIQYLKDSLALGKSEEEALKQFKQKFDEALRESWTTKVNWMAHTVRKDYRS
Chain of PI3K-β (P27986 whole entry partner, species assumed): as the sequence (P27986 whole entry partner, species assumed) above

Compound: FC(F)c1nc2ccccc2n1-c1nc(N2CCOCC2)nc(N2CCOCC2)n1 [ZSTK474, 2-(2-difluoromethylbenzoimidazol-1-yl)-4,6-dimorpholino-1,3,5-triazine]
- IC50 (mTOR [1]): > 10000 nM
- tumor growth in mouse human xenograft cancer models (human tumor xenografts; chronic oral administration, 400 mg/kg, A549, PC-3, WiDr): completely inhibited growth

Compound: CO[C@H]1C[C@@H]2CC[C@@H](C)[C@@](O)(O2)C(=O)C(=O)N2CCCC[C@H]2C(=O)O[C@H]([C@H](C)C[C@@H]2CC[C@@H](OC(=O)C(C)(CO)CO)[C@H](OC)C2)CC(=O)[C@H](C)/C=C(\C)[C@@H](O)[C@@H](OC)C(=O)[C@H](C)C[C@H](C)/C=C/C=C/C=C/1C [Torisel]
- activity in NOS/SCID xenograft mouse model of acute lymphoblastic leukemia [2]: active

Compound: Cn1c(=O)n(-c2ccc(C(C)(C)C#N)cc2)c2c3cc(-c4cnc5ccccc5c4)ccc3ncc21 [NVP-BEZ-235, 2-methyl-2-(4-(3-methyl-2-oxo-8-(quinolin-3-yl)-2,3-dihydro-1H-imidazo[4,5-c]quinolin-1-yl)phenyl)propanenitrile]
- activity in human tumor xenograft models (human tumor xenografts; prostrate (PC-3) and glioblastoma (U-87)): demonstrated activity

Compound: Oc1cccc(-c2nc(N3CCOCC3)c3oc4ncccc4c3n2)c1 [PI103, 3-(4-(4-morpholinyl)pyrido[3′,2′:4,5]furo[3,2-d]pyrimidin-2-yl)phenol]
- activity in human tumor xenograft models (human tumor xenografts; I.P. dosing in mice, U87MG, PC3, MDA-MB-468, MDA-MB-435, HCT 116, SKOV3, IGROV-1): demonstrated activity

Compound: Cn1ncc2c(Nc3ccc(C(N)=O)cc3)nc(-c3cccc(Cl)c3)nc21 [Example 64, 4-{[6-(3-chlorophenyl)-1-methyl-1H-pyrazolo[3,4-d]pyrimidin-4-yl]amino}benzamide]
- IC50 (PI3K-δ): 170 nM
- IC50 (PI3K-β): 1620 nM
- IC50 (PI3K-γ): 331 nM
- IC50 (PI3K-α): 40 nM
- IC50 (mTOR [3]): 300 nM
